Experimental data reported in ChEMBL document CHEMBL4007427, “Inhibition of the Aldehyde Dehydrogenase 1/2 Family by Psoralen and Coumarin Derivatives” (J Med Chem, 2017).

How the values were obtained:
[1] = molecular target: T1, Aldehyde dehydrogenase 1A1 (Homo sapiens) (UniProt P00352); experiment: Inhibition of full length recombinant human ALDH1A1 expressed in Escherichia coli BL21(DE3) assessed as remaining dehydrogenase activity by measuring NAD(P)H level at 10 uM preincubated for 2 mins followed by addition of propionaldehyde as substrate in presence of NAD+ by spectrophotometric method
T1 sequence (whole entry): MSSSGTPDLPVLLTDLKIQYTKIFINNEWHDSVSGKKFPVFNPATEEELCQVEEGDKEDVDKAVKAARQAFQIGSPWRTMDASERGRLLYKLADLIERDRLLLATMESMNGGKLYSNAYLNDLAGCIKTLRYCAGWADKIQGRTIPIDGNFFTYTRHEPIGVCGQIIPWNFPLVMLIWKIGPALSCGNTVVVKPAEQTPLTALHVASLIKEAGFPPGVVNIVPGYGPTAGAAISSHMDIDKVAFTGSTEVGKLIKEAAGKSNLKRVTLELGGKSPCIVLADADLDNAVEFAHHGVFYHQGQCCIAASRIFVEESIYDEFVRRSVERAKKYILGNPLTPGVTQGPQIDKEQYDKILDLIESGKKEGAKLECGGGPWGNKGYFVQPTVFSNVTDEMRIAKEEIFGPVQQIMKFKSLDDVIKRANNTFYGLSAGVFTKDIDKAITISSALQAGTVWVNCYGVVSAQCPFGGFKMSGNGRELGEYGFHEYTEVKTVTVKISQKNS

[2] = molecular target: T2, Aldehyde dehydrogenase, mitochondrial (Homo sapiens) (UniProt P05091); experiment: Inhibition of full length recombinant human ALDH2 expressed in Escherichia coli assessed as remaining dehydrogenase activity by measuring NAD(P)H level at 10 uM preincubated for 2 mins followed by addition of propionaldehyde as substrate in presence of NAD+ by spectrophotometric method
T2 sequence (whole entry): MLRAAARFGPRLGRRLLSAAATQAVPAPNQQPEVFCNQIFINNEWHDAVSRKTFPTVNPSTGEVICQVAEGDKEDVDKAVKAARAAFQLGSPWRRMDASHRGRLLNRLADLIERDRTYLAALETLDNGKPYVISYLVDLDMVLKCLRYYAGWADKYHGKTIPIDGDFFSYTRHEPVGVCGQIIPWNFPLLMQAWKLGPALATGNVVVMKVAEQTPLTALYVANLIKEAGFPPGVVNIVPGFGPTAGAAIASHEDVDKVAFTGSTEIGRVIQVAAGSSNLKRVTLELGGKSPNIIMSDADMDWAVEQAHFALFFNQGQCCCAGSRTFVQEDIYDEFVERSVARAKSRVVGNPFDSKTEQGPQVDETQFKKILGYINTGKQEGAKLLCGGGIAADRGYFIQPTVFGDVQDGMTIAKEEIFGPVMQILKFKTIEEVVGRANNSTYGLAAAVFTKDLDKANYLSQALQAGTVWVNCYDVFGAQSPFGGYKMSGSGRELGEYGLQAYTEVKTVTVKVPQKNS

[3] = molecular target: T3, Aldehyde dehydrogenase, dimeric NADP-preferring (Homo sapiens) (UniProt P30838); experiment: Inhibition of full length recombinant human ALDH3A1 expressed in Escherichia coli BL21(DE3) assessed as remaining dehydrogenase activity by measuring NAD(P)H level at 10 uM preincubated for 2 mins followed by addition of propionaldehyde as substrate in presence of NAD+ by spectrophotometric method
T3 sequence (whole entry): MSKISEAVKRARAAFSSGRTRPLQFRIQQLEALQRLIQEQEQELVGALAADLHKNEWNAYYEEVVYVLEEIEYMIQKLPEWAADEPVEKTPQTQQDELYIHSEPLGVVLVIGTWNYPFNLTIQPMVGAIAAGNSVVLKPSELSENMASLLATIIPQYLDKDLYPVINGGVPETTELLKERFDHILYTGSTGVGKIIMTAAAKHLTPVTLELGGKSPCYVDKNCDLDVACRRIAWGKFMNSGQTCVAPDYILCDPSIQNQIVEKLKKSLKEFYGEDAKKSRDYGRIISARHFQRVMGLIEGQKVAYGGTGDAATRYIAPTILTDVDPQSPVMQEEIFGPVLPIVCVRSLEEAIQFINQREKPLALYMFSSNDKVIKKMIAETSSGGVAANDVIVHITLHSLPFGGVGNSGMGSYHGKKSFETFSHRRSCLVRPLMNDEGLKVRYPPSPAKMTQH

[4] = Lipophilicity, log P of the compound; assay type: physicochemical; settings: octanol/water
[5] = molecular target: T4, Aldehyde dehydrogenase, dimeric NADP-preferring (Homo sapiens, UniProt P30838); experiment: Inhibition of full length recombinant human ALDH3A1 expressed in Escherichia coli BL21(DE3) assessed as reduction in dehydrogenase activity by measuring NAD(P)H level preincubated for 2 mins followed by addition of benzaldehyde as substrate in presence of NADP+ by spectrophotometric method
T4 sequence (P30838 whole entry): T3 sequence (whole entry)

[6] = molecular target: T5, Aldehyde dehydrogenase, mitochondrial (Homo sapiens, UniProt P05091)
T5 sequence (P05091 whole entry): T2 sequence (whole entry)
Description: Inhibition of full length recombinant human ALDH2 expressed in Escherichia coli assessed as reduction in dehydrogenase activity by measuring NAD(P)H level preincubated for 2 mins followed by addition of propionaldehyde as substrate in presence of NAD+ by spectrophotometric method

[7] = molecular target: T6, Aldehyde dehydrogenase 1A1 (Homo sapiens, UniProt P00352)
T6 sequence (P00352 whole entry): T1 sequence (whole entry)
Description: Inhibition of full length recombinant human ALDH1A1 expressed in Escherichia coli BL21(DE3) assessed as reduction in dehydrogenase activity by measuring NAD(P)H level preincubated for 2 mins followed by addition of propionaldehyde as substrate in presence of NAD+ by spectrophotometric method

SMILES | Activity [1] [%] | Activity [2] [%] | Activity [3] [%] | logP [4] | IC50 [5] | IC50 [6] [nM] | IC50 [7]
CC(=O)COc1ccc2c(C)cc(=O)oc2c1 | 52.2 | 99.1 | 64.1 | 1.37 |  |  | 
Cc1cc(=O)oc2cc(OC(C)C(=O)O)ccc12 (stereo not drawn) | 97.5 | 99.3 | 93.9 | 1.63 |  |  | 
Cc1oc2c(C)c3oc(=O)c(C)c(C)c3cc2c1C | 78.4 | 87.2 | 102 | 4.36 |  |  | 
Cc1oc2cc3oc(=O)cc(Cc4ccccc4)c3cc2c1C | 57 | 73.7 | 81.6 | 4.8 |  |  | 
C=CCOc1ccc2c(C)cc(=O)oc2c1 | 35.5 | 94.6 | 9.46 | 3.01 |  |  | 
Cc1c(C)c2c(cc(C)c3c(C)coc32)oc1=O | 71.5 | 46.4 | 98.1 | 3.92 | Not Active | 150 | Not Active
Cc1cc2oc(=O)cc(C)c2cc1NC(=O)C(C)C | 59.8 | 96.3 | 105 | 2.05 |  |  | 
COc1ccc2c(C)cc(=O)oc2c1 [HYMECROMONE METHYL ETHER] | 80.2 | 94.8 | 36.4 | 2.46 |  |  | 
Cc1c(C)c2cc3c4c(oc3cc2oc1=O)CCCC4 | 64.3 | 61.3 | 96.1 | 4.48 |  |  | 
Cc1c(C)c2cc3c(C(C)(C)C)coc3cc2oc1=O | 94.5 | 69.7 | 87 | 3.94 |  |  | 
Cc1cc(=O)oc2cc(OCC(=O)c3ccccc3)ccc12 | 29 | 97.8 | 67.1 | 3.19 |  |  | 
CC(=O)C(C)Oc1ccc2ccc(=O)oc2c1 (stereo not drawn) | 91.4 | 93.3 | 106 | 1.4 |  |  | 
Cc1oc2cc3oc(=O)c4ccccc4c3cc2c1C | 82.4 | 42.2 | 93.4 | 3.89 | Not Active | 150 | Not Active
Cc1oc2cc3oc(=O)c(CCC(=O)NCc4ccccc4)c(C)c3cc2c1C | 93.6 | 69.8 | 68.3 | 4.52 |  |  | 
Cc1coc2cc3oc(=O)c(Cc4ccccc4)c(C)c3cc12 | 58.5 | 83.6 | 90.3 | 4.98 |  |  | 
Cc1cc(=O)oc2cc(OCC(N)=O)ccc12 | 28.5 | 89.5 | 67.1 | 1.71 |  |  | 
CC(=O)C(C)Oc1ccc2c(C)cc(=O)oc2c1 (stereo not drawn) | 68.7 | 94.4 | 101 | 1.72 |  |  | 
CC(=O)C(C)Oc1ccc2c(c1)oc(=O)c1ccccc12 (stereo not drawn) | 58.7 | 64.4 | 103 | 2.64 |  |  | 
Cc1c(C)c2cc3c(=O)ccoc3c(C)c2oc1=O | 67.4 | 80.2 | 79.2 | 2.1 |  |  | 
Cc1cc(=O)oc2cc(OCC(=O)Nc3ccccc3)ccc12 | 49.6 | 95 | 95.5 | 2.85 |  |  | 
CC(C)=CCOc1ccc2c(C)cc(=O)oc2c1 | 37.3 | 93.3 | 23.7 | 3.94 |  |  | 
Cc1c(C)c2cc3c(-c4ccccc4)coc3cc2oc1=O | 87.4 | 92.8 | 88.9 | 4.8 |  |  | 
Cc1c(CCC(=O)O)c(=O)oc2cc(O)ccc12 | 96.6 | 101 | 105 | 1.82 |  |  | 
